Results from patent US20100048950A1 (BOEHRINGER INGELHEIM INTERNATIONAL GMBH, priority 2007, published 2010).

Target: T1, human glucocorticoid receptor (GR) complex (Homo sapiens, UniProt P04150)
T1 construct: made in house; host or cells: insect expression system (baculovirus lysate)
T1 sequence (P04150 1-777): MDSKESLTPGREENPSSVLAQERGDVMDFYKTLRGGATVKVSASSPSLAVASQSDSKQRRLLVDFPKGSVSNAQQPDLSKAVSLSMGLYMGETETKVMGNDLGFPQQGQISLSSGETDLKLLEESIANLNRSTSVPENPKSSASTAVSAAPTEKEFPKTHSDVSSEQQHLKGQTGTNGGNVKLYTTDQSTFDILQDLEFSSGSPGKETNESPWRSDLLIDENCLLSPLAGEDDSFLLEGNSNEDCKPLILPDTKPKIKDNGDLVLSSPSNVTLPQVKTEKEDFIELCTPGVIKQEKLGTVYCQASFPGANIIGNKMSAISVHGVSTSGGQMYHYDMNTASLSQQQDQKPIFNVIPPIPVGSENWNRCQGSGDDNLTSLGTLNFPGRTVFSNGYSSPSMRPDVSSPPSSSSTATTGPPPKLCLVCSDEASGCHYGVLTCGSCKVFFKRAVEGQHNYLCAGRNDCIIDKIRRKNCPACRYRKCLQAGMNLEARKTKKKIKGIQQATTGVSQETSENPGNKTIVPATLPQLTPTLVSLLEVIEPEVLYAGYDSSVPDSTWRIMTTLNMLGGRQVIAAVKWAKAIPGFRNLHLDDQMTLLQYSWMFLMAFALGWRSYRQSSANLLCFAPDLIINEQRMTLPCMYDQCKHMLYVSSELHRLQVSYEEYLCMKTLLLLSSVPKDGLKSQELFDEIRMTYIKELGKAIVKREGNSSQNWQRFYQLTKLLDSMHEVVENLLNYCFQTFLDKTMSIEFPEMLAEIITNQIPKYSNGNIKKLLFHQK
Assay: Glucocorticoid receptor competitive binding assay (fluorescence polarization)
Settings: competition with TAMRA-labeled dexamethasone, read-out: potent activity (IC50) in the GR binding assay
Procedure: Compounds of the invention were evaluated for binding to the steroid receptor by a fluorescence polarization competitive binding assay. Detailed descriptions for preparation of recombinant glucocorticoid receptor (GR) complex used in the assay is described in U.S. Patent Application Publication No. US 2003/0017503, filed May 20, 2002, and incorporated herein by reference in its entirety. Preparation of the tetramethylrhodamine (TAMRA)-labeled dexamethasone probe was accomplished using a standard literature procedure (M. Pons et al., J. Steroid Biochem., 1985, 22, pp. 267-273).
The affinity of the probe for the steroid receptor was then determined in a titration experiment. The fluorescence polarization value of the probe in assay buffer was measured on an SLM-8100 fluorometer using the excitation and emission maximum values described above. Aliquots of expression vector lysate were added and fluorescence polarization was measured after each addition until no further change in polarization value was observed. Non-linear least squares regression analysis was used to calculate the dissociation constant of the probe from the polarization values obtained for lysate binding to the probe.
This assay uses fluorescence polarization (FP) to quantitate the ability of test compounds to compete with tetramethylrhodamine (TAMRA)-labeled dexamethasone for binding to a human glucocorticoid receptor (GR) complex prepared from an insect expression system. The assay buffer was: 10 mM TES, 50 mM KCl, 20 mM Na2MoO4.2H2O, 1.5 mM EDTA, 0.04% w/v CHAPS, 10% v/v glycerol, 1 mM dithiothreitol, pH 7.4. Test compounds were dissolved to 1 mM in neat DMSO and then further diluted to 10× assay concentration in assay buffer supplemented with 10% v/v DMSO. Test compounds were serially diluted at 10× assay concentrations in 10% DMSO-containing buffer in 96-well polypropylene plates. Binding reaction mixtures were prepared in 96-well black Dynex microtiter plates by sequential addition of the following assay components to each well: 15 μL of 10× test compound solution, 85 μL of GR-containing baculovirus lysate diluted 1:170 in assay buffer, and 50 μL of 15 nM TAMRA-labeled dexamethasone. Positive controls were reaction mixtures containing no test compound; negative controls (blanks) were reaction mixtures containing 0.7 μM to 2 μM dexamethasone. The binding reactions were incubated for 1 hour at room temperature and then read for fluorescence polarization in the LJL Analyst set to 550 nm excitation and 580 nm emission, with the Rhodamine 561 dichroic mirror installed. IC50 values were determined by iterative non-linear curve fitting of the FP signal data to a 4-parameter logistic equation.

| Structure (SMILES) | IC50 [nM] |
| --- | --- |
| Cc1cc(C)cc(NCC(NS(=O)(=O)c2c(C)cc(C)cc2C)C(C)C)c1 (stereo not drawn) [N-{1-[(3,5-Dimethylphenylamino)methyl]-2-methylpropyl}-2,4,6-trimethylbenzenesulfonamide] | ≤ 100 |
| Cc1cc(C)c(S(=O)(=O)NC(CNc2cc(Cl)ccc2Cl)C(F)(F)F)c(C)c1 (stereo not drawn) [N-{1-[(2,5-Dichlorophenylamino)methyl]-2,2,2-trifluoroethyl}-2,4,6-trimethylbenzenesulfonamide] | ≤ 100 |
| Cc1cc(C)c(S(=O)(=O)NC(COc2ccc(Br)cc2C)C(F)(F)F)c(C)c1 (stereo not drawn) [N-[1-(4-Bromo-2-methylphenoxymethyl)-2,2,2-trifluoroethyl]-2,4,6-trimethylbenzenesulfonamide] | ≤ 100 |
| Cc1ccc(OCC(NS(=O)(=O)c2c(C)cc(C)cc2C)C(F)(F)F)cc1 (stereo not drawn) [2,4,6-Trimethyl-N-(2,2,2-trifluoro-1-p-tolyloxymethylethyl)benzenesulfonamide] | ≤ 100 |
| Cc1cc(C)c(S(=O)(=O)NC(CSc2ccccc2Cl)C(F)(F)F)c(C)c1 (stereo not drawn) [N-[1-(2-Chlorophenylsulfanylmethyl)-2,2,2-trifluoroethyl]-2,4,6-trimethylbenzenesulfonamide] | ≤ 100 |
| COc1ccc(C(F)(F)F)cc1NCC(NS(=O)(=O)c1c(C)cc(C)cc1C)C(F)(F)F (stereo not drawn) [2,4,6-Trimethyl-N-{2,2,2-trifluoro-1-[(2-methoxy-5-trifluoromethylphenylamino)methyl]ethyl}benzenesulfonamide] | ≤ 100 |
| Cc1cccc(NCC(NS(=O)(=O)c2c(C)cc(C)cc2C)C(F)(F)F)c1 (stereo not drawn) [2,4,6-Trimethyl-N-[2,2,2-trifluoro-1-(m-tolylaminomethyl)ethyl]benzenesulfonamide] | ≤ 100 |
| CCc1cccc(C)c1NCC(NS(=O)(=O)c1c(C)cc(C)cc1C)C(F)(F)F (stereo not drawn) [N-{1-[(2-Ethyl-6-methylphenylamino)methyl]-2,2,2-trifluoroethyl}-2,4,6-trimethylbenzenesulfonamide] | ≤ 100 |
| Cc1cc(C)cc(NCC(NS(=O)(=O)c2c(C)cc(C)cc2C)C(F)(F)F)c1 (stereo not drawn) [N-{1-[(3,5-Dimethylphenylamnino)methyl]-2,2,2-trifluoroethyl}-2,4,6-trimethyl-benzenesulfonamide] | ≤ 100 |
| Cc1cc(C)c(S(=O)(=O)NC(COc2cc(Cl)ccc2C)C(F)(F)F)c(C)c1 (stereo not drawn) [N-[1-(5-Chloro-2-methylphenoxymethyl)-2,2,2-trifluoroethyl]-2,4,6-trimethylbenzenesulfonamide] | ≤ 100 |
| Cc1cc(C)c(S(=O)(=O)NC(COc2ccc3c(c2)CCC3)C(F)(F)F)c(C)c1 (stereo not drawn) [2,4,6-Trimethyl-N-[2,2,2-trifluoro-1-(indan-5-yloxymethyl)ethyl]benzenesulfonamide] | ≤ 100 |
| Cc1cc(C)c(S(=O)(=O)NC(CSc2ccc(F)c(Cl)c2)C(F)(F)F)c(C)c1 (stereo not drawn) [N-[1-(3-Chloro-4-fluorophenylsulfanylmethyl)-2,2,2-trifluoroethyl]-2,4,6-trimethylbenzenesulfonamide] | ≤ 100 |
| Cc1ccc(OCC(NS(=O)(=O)c2c(C)cc(C)cc2C)C(F)(F)F)c(C)c1 (stereo not drawn) [N-[1-(2,4-Dimethylphenoxymethyl)-2,2,2-trifluoroethyl]-2,4,6-trimethylbenzenesulfonamide] | ≤ 100 |
| Cc1cc(C)c(S(=O)(=O)NC(CSc2ccccc2)C(F)(F)F)c(C)c1 (stereo not drawn) [2,4,6-Trimethyl-N-(2,2,2-trifluoro-1-phenylsulfanylmethylethyl)benzenesulfonamide] | ≤ 100 |
| Cc1cc(C)c(S(=O)(=O)NC(COc2ccc(Cl)cc2Cl)C(F)(F)F)c(C)c1 (stereo not drawn) [N-[1-(2,4-Dichlorophenoxymethyl)-2,2,2-trifluoroethyl]-2,4,6-trimethylbenzenesulfonamide] | ≤ 100 |
| COc1ccc(NCC(NS(=O)(=O)c2c(C)cc(C)cc2C)C(F)(F)F)c(OC)c1 (stereo not drawn) [N-{1-[(2,4-Dimethoxyphenylamino)methyl]-2,2,2-trifluoroethyl}-2,4,6-trimethylbenzenesulfonamide] | ≤ 100 |
| Cc1cc(C)c(S(=O)(=O)NC(COc2ccccc2C#N)C(F)(F)F)c(C)c1 (stereo not drawn) [N-[1-(2-Cyanophenoxymethyl)-2,2,2-trifluoroethyl]-2,4,6-trimethylbenzenesulfonamide] | ≤ 100 |
| Cc1cc(C)c(S(=O)(=O)NC(CN(C)c2ccccc2)C(F)(F)F)c(C)c1 (stereo not drawn) [2,4,6-Trimethyl-N-{2,2,2-trifluoro-1-[(methylphenylamino)methyl]ethyl}benzenesulfonamide] | ≤ 100 |
| Cc1cc(C)c(S(=O)(=O)NC(CSc2ccc(C(C)C)cc2)C(F)(F)F)c(C)c1 (stereo not drawn) [2,4,6-Trimethyl-N-[2,2,2-trifluoro-1-(4-isopropylphenylsulfanylmethyl)ethyl]benzenesulfonamide] | ≤ 100 |
| COc1ccc(N(Cc2ccccc2)CC(NS(=O)(=O)c2c(C)cc(C)cc2C)C(F)(F)F)cc1 (stereo not drawn) [N-(1-{[Benzyl-(4-methoxyphenyl)amino]methyl}-2,2,2-trifluoroethyl)-2,4,6-trimethylbenzenesulfonamide] | ≤ 100 |
| Cc1cc(C)c(S(=O)(=O)NC(COc2ccc(C#N)cc2)C(F)(F)F)c(C)c1 (stereo not drawn) [N-[1-(4-Cyanophenoxymethyl)-2,2,2-trifluoroethyl]-2,4,6-trimethylbenzenesulfonamide] | ≤ 100 |
| Cc1cc(C)c(S(=O)(=O)NC(CSc2cc(C)ccc2C)C(F)(F)F)c(C)c1 (stereo not drawn) [N-[1-(2,5-Dimethylphenylsulfanylmethyl)-2,2,2-trifluoroethyl]-2,4,6-trimethylbenzenesulfonamide] | ≤ 100 |
| Cc1cc(C)c(S(=O)(=O)NC(CN(CCC#N)c2ccccc2)C(F)(F)F)c(C)c1 (stereo not drawn) [N-(1-{[(2-Cyanoethyl)phenylamino]methyl}-2,2,2-trifluoroethyl)-2,4,6-trimethylbenzenesulfonamide] | ≤ 100 |
| CCc1ccccc1SCC(NS(=O)(=O)c1c(C)cc(C)cc1C)C(F)(F)F (stereo not drawn) [N-[1-(2-Ethylphenylsulfanylmethyl)-2,2,2-trifluoroethyl]-2,4,6-trimethylbenzenesulfonamide] | ≤ 100 |
| Cc1cc(C)c(S(=O)(=O)NC(CSc2cccc(C(F)(F)F)c2)C(F)(F)F)c(C)c1 (stereo not drawn) [2,4,6-Trimethyl-N-[2,2,2-trifluoro-1-(3-trifluoromethylphenylsulfanylmethyl)ethyl]benzenesulfonamide] | ≤ 100 |
| Cc1cc(C)c(S(=O)(=O)NC(COc2cccc(Br)c2)C(F)(F)F)c(C)c1 (stereo not drawn) [N-[1-(3-Bromophenoxymethyl)-2,2,2-trifluoroethyl]-2,4,6-trimethylbenzenesulfonamide] | ≤ 100 |
| Cc1cc(C)c(S(=O)(=O)NC(COc2ccc(F)c(F)c2F)C(F)(F)F)c(C)c1 (stereo not drawn) [2,4,6-Trimethyl-N-[2,2,2-trifluoro-1-(2,3,4-trifluorophenoxymethyl)ethyl]benzenesulfonamide] | ≤ 100 |
| Cc1cc(C)cc(SCC(NS(=O)(=O)c2c(C)cc(C)cc2C)C(F)(F)F)c1 (stereo not drawn) [N-[1-(3,5-Dimethylphenylsulfanylmethyl)-2,2,2-trifluoroethyl]-2,4,6-trimethylbenzenesulfonamide] | ≤ 100 |
| Cc1cc(C)c(S(=O)(=O)NC(CNc2cc(Cl)ccc2C)C(F)(F)F)c(C)c1 (stereo not drawn) [N-{1-[(5-Chloro-2-methylphenylamino)methyl]-2,2,2-trifluoroethyl}-2,4,6-trimethylbenzenesulfonamide] | ≤ 100 |
| Cc1cc(C)c(S(=O)(=O)NC(CNc2cccc(C)c2C#N)C(F)(F)F)c(C)c1 (stereo not drawn) [N-{1-[(2-Cyano-3-methylphenylamino)methyl]-2,2,2-trifluoroethyl}-2,4,6-trimethylbenzenesulfonamide] | ≤ 100 |
